From paper PMC12430133, “GABAergic and α-Glucosidase-Inhibitory Potentials of Fractions and Isolated Xanthones from Hypericum revolutum Vahl subsp. revolutum” (Molecules, 2025)

Assays:
α-glucosidase = assay: In vitro α-glucosidase-inhibitory assay; format: biochemical
Procedure: The alpha-glucosidase-inhibitory potency of the fractions was assessed by determining whether the fractions can inhibit the activity of α-glucosidase, a carbohydrate-digesting enzyme. The fractions were tested at a concentration of 60 µg/mL.
A previous method [66] was adopted to perform the glucosidase inhibition assay. It was performed on a 96-well transparent plate. […] Next, 50 µL of 10 mM 4-nitrophenyl-β-D-glucopyranoside substrate solution (dissolved in 100 mM phosphate buffer, pH 6.8) was added, and incubation continued for an additional 20 min under the same incubation conditions. After incubation, the enzyme-substrate reaction was stopped by adding 100 µL of a 0.1 M Na2CO3 solution, and absorbance was measured at 405 nm. The absorbances were blanked using the sample and solvent blanks. The enzyme inhibition activity of the samples was computed using the formula below: Enzyme inhibition activity%=Absorbance of control−Absorbance of test/Absorbance of control×100

[1] = molecular target: T1, GABAA receptor subtype (α1, β2, and γ2S subunits) (Homo sapiens, UniProt P14867+P18507+P47870); assay: Functional GABAA receptor assay: modulation of GABA-induced chloride currents (IGABA), two-microelectrode voltage clamp in Xenopus laevis oocytes; format: cell-based; details: 100 µg/mL, isolated compounds; for IGABA potentiation: GABA EC10, mean ± S.E.M
T1 construct: expressed in transfected cells; host or cells: Xenopus laevis oocytes (Ecocyte), cRNA-injected
Procedure: The effects of both fractions and isolated compounds from the PS and PL extracts were determined on GABA-induced chloride currents through the predominantly occurring GABAA receptor subtype (comprising α1, β2, and γ2S subunits). GABAA receptors were heterologously expressed in Xenopus laevis (Grade I–II) oocytes as described previously. The fractions and compounds were tested at a concentration of 100 µg/mL. For the fractions, a 100 µg/mL concentration was used in assessing their IGABA modulatory potential because previous studies have also used the same concentration to assess the IGABA modulatory potential of plant extracts and/or fractions in a similar experimental model. For the compounds, we tested their IGABA modulatory potential at 100 µg/mL to maintain a consistent concentration as the fractions, which provides a comparative perspective about the efficacy of the compounds relative to the fractions.
In brief, defolliculated oocytes were obtained from Ecocyte (Dortmund, Germany) and injected with 50–75 nL of nuclease-free water containing a mixture (ratio 1:1:10) of cRNAs encoding for the major GABAA receptor subtype (α1, β2, and γ2S; concentrations ranging between 100 and 2000 ng/μL/subunit) using a Nanoject III microinjector (Drummond Scientific Company, Broomall, PA, USA). Oocytes were stored at 18 °C in ND96 solution composed of 90 mM NaCl, 1 mM KCl, 1 mM MgCl2·6H2O, 1 mM CaCl2, and 5 mM 2-(4-(2-hydroxyethyl)-1-piperazinyl)ethanesulfonic acid (HEPES), with pH adjusted to 7.4 using 1 M NaOH and supplemented with 100 U/mL penicillin and 10 µg/mL streptomycin. Functional characterisation was then carried out 1–3 days post-injection using two-microelectrode voltage-clamp (TEVC) recordings holding oocytes at −70 mV using a TURBO TEC 03C amplifier (NPI Electronic, Tamm, Germany) connected to an Axon Digidata 1440A digitiser (Molecular Devices, Sunnyvale, CA, USA). Data acquisition was performed using pCLAMP software version 10.3 (Molecular Devices), and current traces were analysed offline. Microelectrodes were filled with 2 M KCl and had resistances between 1 and 3 MΩ. GABA and test compounds were applied using a TECAN Miniprep 60 (npi electronic, Tamm, Germany), permitting semi-automation of the experiments coupled to a fast perfusion system. The oocyte-containing chamber was perfused with 200 µL GABA-containing solutions at a volume rate between 150 and 200 µL/s to elicit chloride currents through GABAA receptors (IGABA). Modulation of IGABA by the compounds was measured at a GABA concentration eliciting 10% of the maximal current amplitude (EC10), peak amplitudes were measured, and the effect was calculated using the following formula: IGABA potentiation%=Amplitude IGABA−sample−Amplitude IGABA−control/Amplitude IGABA−control×100
IGABA+Sample is the current induced by co-application of GABA and the tested sample, while IGABA−control is the current induced by application of GABA alone.

T1 sequence (P14867 28-456): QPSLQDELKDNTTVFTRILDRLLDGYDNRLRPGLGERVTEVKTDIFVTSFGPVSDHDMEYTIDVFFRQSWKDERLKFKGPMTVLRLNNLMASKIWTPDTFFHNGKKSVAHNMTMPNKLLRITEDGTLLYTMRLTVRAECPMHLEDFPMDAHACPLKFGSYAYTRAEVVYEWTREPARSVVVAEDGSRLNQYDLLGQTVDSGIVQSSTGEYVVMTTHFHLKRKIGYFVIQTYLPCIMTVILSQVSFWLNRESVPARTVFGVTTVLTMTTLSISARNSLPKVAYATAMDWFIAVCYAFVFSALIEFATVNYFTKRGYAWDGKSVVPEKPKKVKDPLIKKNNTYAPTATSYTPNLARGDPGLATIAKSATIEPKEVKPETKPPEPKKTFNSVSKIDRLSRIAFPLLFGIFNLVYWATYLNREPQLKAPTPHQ
T1 sequence (P47870 25-512 limits assumed): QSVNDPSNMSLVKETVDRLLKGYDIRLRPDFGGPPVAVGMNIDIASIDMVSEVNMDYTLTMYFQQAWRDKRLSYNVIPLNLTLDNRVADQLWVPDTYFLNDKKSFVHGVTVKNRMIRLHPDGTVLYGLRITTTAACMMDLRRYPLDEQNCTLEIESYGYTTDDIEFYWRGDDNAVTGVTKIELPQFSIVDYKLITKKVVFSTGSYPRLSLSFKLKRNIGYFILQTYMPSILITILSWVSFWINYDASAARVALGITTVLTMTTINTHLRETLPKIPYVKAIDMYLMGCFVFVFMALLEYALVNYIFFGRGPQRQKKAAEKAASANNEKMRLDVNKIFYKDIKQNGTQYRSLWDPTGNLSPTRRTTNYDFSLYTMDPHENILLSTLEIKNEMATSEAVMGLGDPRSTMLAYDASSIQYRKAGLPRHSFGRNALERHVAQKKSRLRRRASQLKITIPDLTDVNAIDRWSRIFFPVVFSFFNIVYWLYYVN
T1 sequence (P18507 40-467 isoform P18507-1 limits assumed): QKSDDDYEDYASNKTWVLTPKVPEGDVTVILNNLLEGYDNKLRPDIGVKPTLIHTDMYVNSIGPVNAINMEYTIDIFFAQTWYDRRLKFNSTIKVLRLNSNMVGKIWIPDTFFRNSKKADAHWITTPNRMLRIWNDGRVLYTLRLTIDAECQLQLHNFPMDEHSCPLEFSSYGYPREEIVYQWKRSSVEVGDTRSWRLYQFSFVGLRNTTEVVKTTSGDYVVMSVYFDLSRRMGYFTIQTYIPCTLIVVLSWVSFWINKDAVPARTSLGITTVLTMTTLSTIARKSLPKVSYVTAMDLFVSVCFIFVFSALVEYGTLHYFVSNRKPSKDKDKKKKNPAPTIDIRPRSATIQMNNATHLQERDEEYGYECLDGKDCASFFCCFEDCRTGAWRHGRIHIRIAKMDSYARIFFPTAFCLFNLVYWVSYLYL

IC50 (α-glucosidase; dose-dependent assay 1.5625–100 µM, isolated compound and acarbose, read-out: α-glucosidase inhibition IC50) [µM] | IGABA potentiation [1] [%] | Effect on IGABA (in words) [1] | SMILES | Glucosidase-Inhibitory Activity (%) (α-glucosidase; tested at 60 μg/mL, fractions from MeOH extract of PS (plant stem) and acarbose, NAD = no activity detected)
45.1 | 5 ± 7 | inactive | COc1cc([C@@H]2Oc3c(OC)cc4c(=O)c5ccccc5oc4c3O[C@H]2CO)ccc1O (relative stereo) [Compound 3, trans-3-(4-hydroxy-3-methoxyphenyl)-2-(hydroxymethyl)-5-methoxy-2,3-dihydro-7H-[1,4]dioxino[2,3-c]xanthen-7-one] | –
– | – | – | C[C@H]1O[C@H](O[C@H]2[C@H](O)[C@@H](O)[C@@H](O[C@H]3[C@H](O)[C@@H](O)C(O)O[C@@H]3CO)O[C@@H]2CO)[C@H](O)[C@@H](O)[C@@H]1N[C@H]1C=C(CO)[C@@H](O)[C@H](O)[C@H]1O (some centres unmarked) [Acarbose, acarbose, reference compound] | 94.3 ± 1.86
– | 65 ± 13 | significantly enhanced IGABA | COc1cc2c(=O)c3ccccc3oc2c(O)c1OC [Compound 1, 4-hydroxy-2,3-dimethoxy-9H-xanthen-9-one] | –
– | 36 ± 9 | significantly enhanced IGABA | COc1cc2c(=O)c3ccccc3oc2c(OC)c1O [Compound 2, 3-hydroxy-2,4-dimethoxy-9H-xanthen-9-one] | –
